From ChEMBL document CHEMBL2073966, “Cloning and functional characterization of a new multispecific organic anion transporter, OAT-K2, in rat kidney” (Mol Pharmacol, 1999) come the findings set out here.

Each structure is given as a SMILES string.

The target in the first data set is T1, Solute carrier organic anion transporter family member 1A3 (Rattus norvegicus, UniProt P70502).
T1 sequence (P70502 whole entry): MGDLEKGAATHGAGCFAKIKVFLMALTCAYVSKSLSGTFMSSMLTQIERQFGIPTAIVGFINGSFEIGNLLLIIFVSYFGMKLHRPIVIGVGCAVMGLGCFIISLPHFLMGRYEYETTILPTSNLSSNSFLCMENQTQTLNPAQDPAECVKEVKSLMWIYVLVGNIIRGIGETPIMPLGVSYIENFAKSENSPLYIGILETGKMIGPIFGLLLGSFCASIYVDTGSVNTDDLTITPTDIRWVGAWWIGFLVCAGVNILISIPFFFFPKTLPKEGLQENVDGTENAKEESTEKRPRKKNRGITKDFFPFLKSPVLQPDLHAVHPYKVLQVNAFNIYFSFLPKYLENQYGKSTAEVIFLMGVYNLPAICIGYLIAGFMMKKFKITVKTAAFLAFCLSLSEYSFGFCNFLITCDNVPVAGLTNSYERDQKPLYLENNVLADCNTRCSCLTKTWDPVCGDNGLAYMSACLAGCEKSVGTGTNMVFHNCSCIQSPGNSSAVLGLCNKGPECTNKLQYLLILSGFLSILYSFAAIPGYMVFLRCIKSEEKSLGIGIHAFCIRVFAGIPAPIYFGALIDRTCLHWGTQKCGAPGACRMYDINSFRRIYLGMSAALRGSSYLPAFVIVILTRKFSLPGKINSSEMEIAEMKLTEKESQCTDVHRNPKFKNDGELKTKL
In words: TP_TRANSPORTER: inhibition of Taurocholate uptake in OAT-K2-expressing MDCK cells. It counts as functional, cell-based. As to conditions: dog.
On to `C[C@]12C=CC(=O)C=C1CC[C@@H]1[C@@H]2[C@@H](O)C[C@@]2(C)[C@H]1CC[C@]2(O)C(=O)CO` [PREDNISOLONE], for which the Activity entry was “inhibitor [+]”.

Take `C[C@]12CC[C@@H]3c4ccc(O)cc4CC[C@H]3[C@@H]1CC[C@@H]2O` [ESTRADIOL]: the Activity entry was “inhibitor [+]”.

On to `C[C@]12CC[C@H]3[C@@H](CCC4=CC(=O)CC[C@@]43C)[C@@H]1CC[C@@H]2O` [TESTOSTERONE], for which the Activity result is “inhibitor [+]”.

For the compound `C[C@]12CC[C@@H]3c4ccc(O)cc4CC[C@H]3[C@@H]1C[C@@H](O)[C@@H]2O` [ESTRIOL], the Activity entry is “inhibitor [+]”.

For `C[C@H](CCC(=O)O)[C@H]1CC[C@H]2[C@@H]3CC[C@@H]4C[C@H](O)CC[C@]4(C)[C@H]3C[C@H](O)[C@]12C` [DEOXYCHOLIC ACID], the Activity entry was “inhibitor [+]”.

For the compound `CC(=O)S[C@@H]1CC2=CC(=O)CC[C@]2(C)[C@H]2CC[C@@]3(C)[C@@H](CC[C@@]34CCC(=O)O4)[C@H]12` [SPIRONOLACTONE], the Activity result was “inhibitor [+]”.

For `CCCN(CCC)S(=O)(=O)c1ccc(C(=O)O)cc1` [PROBENECID], the Activity entry was “inhibitor [+]”.

With `C[C@@H]1C[C@H]2[C@@H]3CCC4=CC(=O)C=C[C@]4(C)[C@@]3(F)[C@@H](O)C[C@]2(C)[C@@]1(O)C(=O)CO` [DEXAMETHASONE], the Activity result is “inhibitor [+]”.

With `C[C@H](CCC(=O)NCC(=O)O)[C@H]1CC[C@H]2[C@@H]3[C@H](O)C[C@@H]4C[C@H](O)CC[C@]4(C)[C@H]3C[C@H](O)[C@]12C` [GLYCOCHOLIC ACID], the Activity entry is “inhibitor [+]”.

Turning to `C[C@H](CCC(=O)O)[C@H]1CC[C@H]2[C@@H]3[C@@H](O)C[C@@H]4C[C@H](O)CC[C@]4(C)[C@H]3CC[C@]12C` [URSODIOL], the Activity result was “inhibitor [+]”.

Take `O=C1OC(c2ccc(O)c(S(=O)(=O)[O-])c2)(c2ccc(O)c(S(=O)(=O)[O-])c2)c2c(Br)c(Br)c(Br)c(Br)c21.[Na+].[Na+]` [SULFOBROMOPHTHALEIN SODIUM]: the Activity result is “inhibitor [+]”.

`COc1ccc2c(c1)c(CC(=O)O)c(C)n2C(=O)c1ccc(Cl)cc1` [INDOMETHACIN]: the Activity entry is “inhibitor [+]”.

As to `C[C@H](CCC(=O)NCCS(=O)(=O)O)[C@H]1CC[C@H]2[C@@H]3CC[C@@H]4C[C@H](O)CC[C@]4(C)[C@H]3C[C@H](O)[C@]12C` [TAURODEOXYCHOLIC ACID], the Activity result is “inhibitor [+]”.

`C[C@H](CCC(=O)NCC(=O)O)[C@H]1CC[C@H]2[C@@H]3[C@H](O)C[C@@H]4C[C@H](O)CC[C@]4(C)[C@H]3CC[C@]12C` [GLYCOCHENODEOXYCHOLATE]: the Activity result was “inhibitor [+]”.

Turning to `C[C@H](CCC(=O)NCCS(=O)(=O)O)[C@H]1CC[C@H]2[C@@H]3[C@H](O)C[C@@H]4C[C@H](O)CC[C@]4(C)[C@H]3CC[C@]12C` [TAUROCHENODEOXYCHOLATE], the Activity entry was “inhibitor [+]”.

A further data set concerns the target T1, Solute carrier organic anion transporter family member 1A3. Description: TP_TRANSPORTER: uptake in OAT-K2-expressing MDCK cells. It counts as functional, cell-based. The conditions noted are these: dog.
With `CCCCC[C@H](O)/C=C/[C@H]1[C@H](O)CC(=O)[C@@H]1C/C=C\CCCC(=O)O` [DINOPROSTONE], the Activity entry was “substrate [+]”.

Another data set has the same target. In words: TP_TRANSPORTER: uptake in Xenopus laevis oocytes. Type of data set: functional, cell-based. The conditions noted are these: oocyte.
Regarding `CN(Cc1cnc2nc(N)nc(N)c2n1)c1ccc(C(=O)N[C@@H](CCC(=O)O)C(=O)O)cc1` [METHOTREXATE], the Activity entry was “substrate [+]”.

Consider `CCCCC[C@H](O)/C=C/[C@H]1[C@H](O)CC(=O)[C@@H]1C/C=C\CCCC(=O)O` [DINOPROSTONE], for which the Activity entry was “substrate [+]”.

For `Nc1nc2ncc(CNc3ccc(C(=O)N[C@@H](CCC(=O)O)C(=O)O)cc3)nc2c(=O)[nH]1` [FOLIC ACID], the Activity result was “substrate [+]”.
